The source of these data is PubChem BioAssay (NCI).

Test systems include HL-60(TB) leukemia; HOP-62 NSCLC; HOP-92 NSCLC; MALME-3M melanoma; NCI-H23 lung; OVCAR-3 ovarian; SK-MEL-2 melanoma; SK-MEL-5 melanoma; SNB-19 CNS; UO-31 renal.
Common to all, as to assay: inhibition of tumour cell growth, NCI panel, 48 h

Values joined by “and” are separate entries in the source; they are usually repeats but may differ in a detail not shown here. Identical values can stand only once.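 Compound exposure: 48 hours, 5 concentrations, 96-well plates. Here, GI50 denotes the concentration required for 50% inhibition of growth. TGI marks complete inhibition of growth.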

For the compound `S=c1nc2[nH]ncc2c(N/N=C/c2ccccc2)[nH]1`, the GI50 in the assay on HL-60(TB) leukemia was > 100 µM; in the assay with HOP-62 NSCLC, > 100 µM; with HOP-92 NSCLC, > 100 µM; in the assay with MALME-3M melanoma it was > 100 µM; in the assay on NCI-H23 lung, > 100 µM; with OVCAR-3 ovarian, 48.5 µM. For the same compound, the GI50 is > 100 µM in the assay with SK-MEL-2 melanoma, 41.3 µM in the assay on SK-MEL-5 melanoma, > 100 µM with SNB-19 CNS and > 100 µM in the assay with UO-31 renal. The TGI in the assay with HL-60(TB) leukemia, in the assay on HOP-62 NSCLC, with HOP-92 NSCLC, in the assay with MALME-3M melanoma, with NCI-H23 lung and with OVCAR-3 ovarian was > 100 µM each time. Besides, the TGI in the assay with SK-MEL-2 melanoma, in the assay with SK-MEL-5 melanoma, in the assay with SNB-19 CNS and with UO-31 renal was > 100 µM in each case.
Take `COC(=O)C(C(=O)C(=O)Nc1ccccc1C(C)=O)c1nc2ccc(Cl)cc2[nH]c1=O` (stereo unspecified): the TGI in the assay with HL-60(TB) leukemia, in the assay on HOP-62 NSCLC, in the assay with HOP-92 NSCLC, in the assay with MALME-3M melanoma, with NCI-H23 lung and in the assay with OVCAR-3 ovarian was > 100 µM each time. For the same compound, the TGI with SK-MEL-2 melanoma, with SK-MEL-5 melanoma, in the assay with SNB-19 CNS and in the assay with UO-31 renal was > 100 µM throughout.
In the case of `CCC1=C(C)/C(=C/c2[nH]c(CBr)c(CC)c2C)N=C1CBr`, the TGI was determined as 25.6 µM with HL-60(TB) leukemia; 34.8 µM in the assay on HOP-62 NSCLC; 26.7 µM in the assay with HOP-92 NSCLC; 41 µM in the assay on MALME-3M melanoma; 46.7 µM in the assay on NCI-H23 lung; 30.1 µM with OVCAR-3 ovarian. The TGI with SK-MEL-2 melanoma worked out at 48.5 µM; in the assay with SK-MEL-5 melanoma, 30.5 µM; in the assay with SNB-19 CNS, 33.9 µM; with UO-31 renal, 15.8 µM.
As to `Cc1c2c(nn1C(=O)c1nn(-c3ccc(Cl)cc3)cc1O)-c1ccccc1CC2`, the GI50 was 0.0507 µM in the assay on HL-60(TB) leukemia; 0.0432 µM in the assay with HOP-62 NSCLC; 0.0521 µM in the assay on HOP-92 NSCLC; 0.328 µM with MALME-3M melanoma; 0.0411 µM with NCI-H23 lung; 0.185 µM in the assay with OVCAR-3 ovarian. Also, the GI50 with SK-MEL-2 melanoma is 55.4 µM; in the assay on SK-MEL-5 melanoma, 0.313 µM; in the assay with SNB-19 CNS, 0.0446 µM; with UO-31 renal, 0.0603 µM. The TGI is 1.12 µM in the assay with HL-60(TB) leukemia; > 100 µM with HOP-62 NSCLC; > 100 µM in the assay on HOP-92 NSCLC; > 74 µM in the assay on MALME-3M melanoma; > 100 µM in the assay on NCI-H23 lung; 1.55 µM in the assay with OVCAR-3 ovarian. The TGI with SK-MEL-2 melanoma, in the assay with SNB-19 CNS and with UO-31 renal was > 100 µM in each case.
With `CNNCc1ccc(C(=O)NC(C)C)cc1`, the TGI with HL-60(TB) leukemia is > 500 µM; in the assay with HOP-62 NSCLC, > 500 µM; with HOP-92 NSCLC it was 391 µM and > 500 µM; in the assay with MALME-3M melanoma, > 500 µM; with NCI-H23 lung, > 500 µM; in the assay on OVCAR-3 ovarian, > 472 µM. In addition, the TGI with SK-MEL-2 melanoma, in the assay with SK-MEL-5 melanoma, in the assay on SNB-19 CNS and in the assay with UO-31 renal was > 500 µM throughout. The values for the GI50 in the assay on HOP-62 NSCLC, in the assay on HOP-92 NSCLC and in the assay with SK-MEL-5 melanoma were > 500 µM, 459 µM and > 500 µM, respectively.
Consider `CC(=O)O[C@H]1C(=O)O[C@@H]2C[C@H]3C(C)=CC(=O)[C@@H](O)[C@]3(C)[C@H]3[C@@]4(O)OC[C@]32[C@@H]1[C@@H](C)[C@H]4O`, for which the TGI in the assay on HL-60(TB) leukemia is 0.4 µM; in the assay on HOP-62 NSCLC, 0.07 µM and 0.314 µM; in the assay with HOP-92 NSCLC, 0.216 µM and 0.124 µM; in the assay with MALME-3M melanoma, 0.062 µM and 0.0429 µM; in the assay with NCI-H23 lung it was 0.0904 µM and 0.453 µM; in the assay with OVCAR-3 ovarian it was 0.172 µM and 0.12 µM. In addition, the TGI is 0.197 µM and 0.259 µM in the assay on SK-MEL-2 melanoma; 0.0287 µM and 0.052 µM with SK-MEL-5 melanoma; 0.0995 µM and 0.135 µM in the assay with SNB-19 CNS; 1.21 µM and 4.45 µM in the assay on UO-31 renal. Further, the GI50 in the assay on HOP-62 NSCLC was < 0.0122 µM; with HOP-92 NSCLC, 0.0288 µM; in the assay on MALME-3M melanoma it was < 0.01 µM; in the assay with NCI-H23 lung, < 0.0141 µM; with OVCAR-3 ovarian, 0.0134 µM; with SK-MEL-2 melanoma, 0.0283 µM. The GI50 in the assay with SK-MEL-5 melanoma was < 0.01 µM; with SNB-19 CNS, 0.0138 µM and 0.0382 µM; in the assay with UO-31 renal it was 0.0958 µM.
Turning to `N#CC(=S)Nc1ccc(Cl)c(Cl)c1`, the GI50 with HL-60(TB) leukemia was 11.8 µM; in the assay with UO-31 renal, 7.63 µM. Besides, the TGI with HL-60(TB) leukemia was 40.9 µM; in the assay on HOP-62 NSCLC, 99.5 µM; with HOP-92 NSCLC, 9.59 µM; in the assay on MALME-3M melanoma, > 54.7 µM; with NCI-H23 lung, > 59.2 µM; in the assay with OVCAR-3 ovarian, 54.3 µM. The TGI is 33.2 µM in the assay on SK-MEL-2 melanoma, > 51.3 µM with SK-MEL-5 melanoma, > 100 µM with SNB-19 CNS and 51.6 µM in the assay with UO-31 renal.
Take `COc1cc(C#N)cc(OC)c1OCCOCCOc1c(OC)cc(C#N)cc1OC`: the GI50 in the assay with HL-60(TB) leukemia is 19 µM; in the assay on HOP-62 NSCLC, > 100 µM; in the assay on HOP-92 NSCLC it was 10.3 µM; in the assay with MALME-3M melanoma it was 58.1 µM; with NCI-H23 lung, > 100 µM; in the assay with OVCAR-3 ovarian, > 100 µM. Further, the GI50 is > 100 µM in the assay with SK-MEL-2 melanoma, 69.8 µM in the assay on SK-MEL-5 melanoma, 94.4 µM in the assay with SNB-19 CNS and 26.4 µM in the assay on UO-31 renal. For the same compound, the TGI with HL-60(TB) leukemia was 85.7 µM; in the assay with HOP-62 NSCLC, > 100 µM; in the assay on HOP-92 NSCLC, 78.4 µM; in the assay on MALME-3M melanoma, > 100 µM; with NCI-H23 lung, > 100 µM; in the assay on OVCAR-3 ovarian it was > 100 µM. In addition, the TGI with SK-MEL-2 melanoma, in the assay on SK-MEL-5 melanoma, in the assay on SNB-19 CNS and in the assay on UO-31 renal was > 100 µM in each case.
Consider `O=c1cc(-c2ccc(Cl)cc2)[nH]c2ncccc12`, for which the GI50 is 16.6 µM in the assay with HL-60(TB) leukemia, 23.4 µM in the assay with OVCAR-3 ovarian and 29 µM with SK-MEL-5 melanoma. In addition, the TGI was 41.6 µM in the assay with HL-60(TB) leukemia; > 100 µM in the assay on HOP-62 NSCLC; > 100 µM in the assay on HOP-92 NSCLC; > 100 µM with MALME-3M melanoma; > 100 µM in the assay with NCI-H23 lung; 73.8 µM in the assay on OVCAR-3 ovarian. In addition, the TGI with SK-MEL-2 melanoma, in the assay with SK-MEL-5 melanoma, in the assay with SNB-19 CNS and with UO-31 renal was > 100 µM in each case.
Regarding `ClC1CCC2OOC1O2` (stereo unspecified), the TGI with HL-60(TB) leukemia, in the assay on HOP-62 NSCLC, in the assay on HOP-92 NSCLC, with MALME-3M melanoma, in the assay with NCI-H23 lung and in the assay with OVCAR-3 ovarian was > 100 µM throughout. The TGI in the assay on SK-MEL-2 melanoma, in the assay with SK-MEL-5 melanoma, in the assay on SNB-19 CNS and in the assay with UO-31 renal was > 100 µM throughout.
